Laboratory results reported in paper PMC6215257, “Erianin against Staphylococcus aureus Infection via Inhibiting Sortase A” (Toxins, 2018).

Key:
V193A-SrtA (Sortase A) = target: T1, V193A-SrtA (Sortase A) (Staphylococcus aureus, UniProt Q2FV99, V193A); assay: fluorescence quenching binding constant (KA); FRET inhibition reduced vs WT
T1 construct: residues 60–206 (pG-srtAΔN59, pGEX-6P-1)

R197A-SrtA (Sortase A) = target: T2, R197A-SrtA (Sortase A) (Staphylococcus aureus, UniProt Q2FV99, R197A); assay: as above
T2 construct: residues 60–206 (pG-srtAΔN59, pGEX-6P-1)

Sortase A (srtA) = target: T3, Sortase A (srtA) (Staphylococcus aureus, UniProt Q2FV99); assay: FRET peptide cleavage assay with purified SrtA; binding also by fluorescence quenching (KA […] L/mol); format: biochemical
T3 construct: residues 60–206 (pG-srtAΔN59, pGEX-6P-1)

COc1ccc(CCc2cc(OC)c(OC)c(OC)c2)cc1O [erianin] gave a Kd (V193A-SrtA (Sortase A)) of 2280 nM, a Kd (R197A-SrtA (Sortase A)) of 2530 nM and an IC50 (Sortase A (srtA)) of 65700 ± 7200 nM.
